Reference: PubChem BioAssay AID248 (DTP/NCI, 2004)
“And” between values parts separate entries of the source, which are not always exact repeats. Equal values may be shown once. Inconclusive results and toxic doses are left out. Rule as the data show it: active = T/C of 150% or more; inactive = T/C below 125%.

Tested on: L1210 leukemia ip in BDF1 mice, survival T/C
Test: NCI In Vivo Anticancer Drug Screen. Data for tumor model L1210 Leukemia (intraperitoneal) in B6D2F1 (BDF1) mice
Details: endpoint: mean survival time, higher = longer survival
Summary of the method: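 Value reflects the ratio of survival in compound-treated mice to survival in vehicle-treated controls, with both groups carrying the same transplanted tumor.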

[1] = dose: 12.5 mg/kg/injection, schedule: Q01DX009 (ip), vehicle: saline with Tween-80
[2] = dose: 25.0 mg/kg/injection, schedule: Q01DX009 (ip), vehicle: saline with Tween-80
[3] = dose: 50.0 mg/kg/injection, schedule: Q01DX009 (ip), vehicle: saline with Tween-80
[4] = dose: 100.0 mg/kg/injection, schedule: Q01DX001 (ip), vehicle: Klucel (hydroxypropylcellulose) (HPC)
[5] = dose: 100.0 mg/kg/injection, schedule: Q04DX003 (ip), vehicle: Klucel (hydroxypropylcellulose) (HPC)
[6] = dose: 100.0 mg/kg/injection, schedule: Q04DX003 (ip), vehicle: saline with Tween-80
[7] = dose: 200.0 mg/kg/injection, schedule: Q01DX001 (ip), vehicle: Klucel (hydroxypropylcellulose) (HPC)
[8] = dose: 200.0 mg/kg/injection, schedule: Q04DX003 (ip), vehicle: Klucel (hydroxypropylcellulose) (HPC)
[9] = dose: 200.0 mg/kg/injection, schedule: Q04DX003 (ip), vehicle: saline with Tween-80
[10] = dose: 400.0 mg/kg/injection, schedule: Q01DX001 (ip), vehicle: Klucel (hydroxypropylcellulose) (HPC)
[11] = dose: 400.0 mg/kg/injection, schedule: Q04DX003 (ip), vehicle: Klucel (hydroxypropylcellulose) (HPC)
[12] = dose: 400.0 mg/kg/injection, schedule: Q04DX003 (ip), vehicle: saline with Tween-80
[13] = dose: 100.0 mg/kg/injection, schedule: Q01DX001 (ip), vehicle: saline
[14] = dose: 200.0 mg/kg/injection, schedule: Q01DX001 (ip), vehicle: saline
[15] = dose: 100.0 mg/kg/injection, schedule: Q01DX009 (ip), vehicle: Klucel (hydroxypropylcellulose) (HPC)
[16] = dose: 200.0 mg/kg/injection, schedule: Q01DX009 (ip), vehicle: Klucel (hydroxypropylcellulose) (HPC)
[17] = dose: 400.0 mg/kg/injection, schedule: Q01DX009 (ip), vehicle: Klucel (hydroxypropylcellulose) (HPC)
[18] = dose: 400.0 mg/kg/injection, schedule: Q01DX001 (ip), vehicle: saline

Measured: T/C

FC(F)(F)c1cccc(-c2nc3nc(Cl)c(Cl)nc3[nH]2)c1
inactive: [1] 93 % of control | [2] 98 % of control | [3] 90 % of control

O=C(O)C1(c2ccccc2)OC1c1ccccc1 (configuration not stated)
inactive: [4] 93 % of control | [5] 95 % of control | [6] 90 % of control | [7] 91 % of control | [8] 95 % of control | [9] 86 % of control | [10] 93 % of control | [11] 86 % of control | [12] 92 % of control

Cc1c(C(C)c2[nH]c3ccccc3c2C)[nH]c2ccccc12
inactive: dose: 50.0 mg/kg/injection, schedule: Q01DX001 (ip), vehicle: other 98 % of control | dose: 100.0 mg/kg/injection, schedule: Q01DX001 (ip), vehicle: other 102 % of control | dose: 200.0 mg/kg/injection, schedule: Q01DX001 (ip), vehicle: other 91 % of control | dose: 400.0 mg/kg/injection, schedule: Q01DX001 (ip), vehicle: other 93 % of control

COc1cc2ccnc(C=O)c2cc1OC
inactive: dose: 50.0 mg/kg/injection, schedule: Q01DX001 (ip), vehicle: saline 96 % of control | [13] 95 % of control | [14] 101 % of control

CCCCOP(=O)(CCCC)OCCCC
inactive: [1] 103 % of control | dose: 12.5 mg/kg/injection, schedule: Q04DX003 (ip), vehicle: saline with Tween-80 86 % of control | [2] 92 % of control | dose: 25.0 mg/kg/injection, schedule: Q04DX003 (ip), vehicle: saline with Tween-80 104 % of control | [3] 92 % of control | dose: 50.0 mg/kg/injection, schedule: Q04DX003 (ip), vehicle: saline with Tween-80 93 % of control and 94 % of control

C=C(C)C(=O)OCC1COc2c(cc(O)c(C)c2C)C1 (configuration not stated)
inactive: [6] 107 % of control | [9] 98 % of control | [12] 98 % of control

Cc1ccc(C)c(NC(=O)OC/C=C/c2ccccc2)c1
inactive: [15] 88 % of control | [16] 86 % of control | [17] 86 % of control

Cc1cc(CS)c(CS)cc1C
inactive: [15] 100 % of control | [5] 96 % of control | [16] 103 % of control | [8] 93 % of control | [17] 102 % of control | [11] 94 % of control

CC(NC(=O)C(CO)NC(=O)c1cnc2ccccc2n1)C(=O)OC(C)(C)C (configuration not stated)
inactive: [13] 102 % of control | [14] 102 % of control | [18] 115 % of control

Nc1ccn(C2OC(CO)C(OP(=O)(O)O)C2O)c(=O)n1 (configuration not stated)
inactive: dose: 40.0 mg/kg/injection, schedule: Q01DX001 (ip), vehicle: water 102 % of control | dose: 80.0 mg/kg/injection, schedule: Q01DX001 (ip), vehicle: water 97 % of control

Cn1nnn2c(-c3ccccc3)nnc12
inactive: dose: 100.0 mg/kg/injection, schedule: Q01DX009 (ip), vehicle: saline with Tween-80 97 % of control | [6] 105 % of control | dose: 200.0 mg/kg/injection, schedule: Q01DX009 (ip), vehicle: saline with Tween-80 105 % of control | [9] 97 % of control | [12] 100 % of control

C[Si](C)(C)Oc1ccc(O[Si](C)(C)C)cc1
inactive: dose: 100.0 mg/kg/injection, schedule: Q01DX009 (ip), vehicle: other 92 % of control | dose: 200.0 mg/kg/injection, schedule: Q01DX009 (ip), vehicle: other 94 % of control | dose: 400.0 mg/kg/injection, schedule: Q01DX009 (ip), vehicle: other 101 % of control

Nc1cccc(Nc2cc(S(=O)(=O)O)c(N)c3c2C(=O)c2ccccc2C3=O)c1
inactive: dose: 5.0 mg/kg/injection, schedule: Q01DX001 (ip), vehicle: saline 100 % of control | dose: 10.0 mg/kg/injection, schedule: Q01DX001 (ip), vehicle: saline 94 % of control | dose: 20.0 mg/kg/injection, schedule: Q01DX001 (ip), vehicle: saline 100 % of control | dose: 40.0 mg/kg/injection, schedule: Q01DX001 (ip), vehicle: saline 100 % of control | dose: 80.0 mg/kg/injection, schedule: Q01DX001 (ip), vehicle: saline 103 % of control | [13] 93 % of control | [14] 100 % of control

COc1cc(/C=N/Nc2cc(=O)[nH]c(N)n2)cc(OC)c1OC
inactive: [5] 98 % of control | [8] 100 % of control | [11] 100 % of control

CC(=O)OCC(=O)[C@@]1(O)CC[C@H]2[C@@H]3CCC4=CC(=O)[C@H](C)C[C@]4(C)[C@H]3[C@@H](O)C[C@@]21C
inactive: dose: 50.0 mg/kg/injection, schedule: Q01DX001 (sc), vehicle: steriod suspending solution 111 % of control | dose: 100.0 mg/kg/injection, schedule: Q01DX001 (sc), vehicle: steriod suspending solution 102 % of control | dose: 100.0 mg/kg/injection, schedule: Q04DX003 (sc), vehicle: steriod suspending solution 100 % of control | dose: 200.0 mg/kg/injection, schedule: Q01DX001 (sc), vehicle: steriod suspending solution 102 % of control | dose: 200.0 mg/kg/injection, schedule: Q04DX003 (sc), vehicle: steriod suspending solution 105 % of control | dose: 400.0 mg/kg/injection, schedule: Q01DX001 (sc), vehicle: steriod suspending solution 110 % of control | dose: 400.0 mg/kg/injection, schedule: Q04DX003 (sc), vehicle: steriod suspending solution 107 % of control

CC(=O)N1CCc2c(O)cccc2C1
inactive: dose: 100.0 mg/kg/injection, schedule: Q04DX003 (ip), vehicle: saline 93 % of control | dose: 200.0 mg/kg/injection, schedule: Q04DX003 (ip), vehicle: saline 93 % of control | dose: 400.0 mg/kg/injection, schedule: Q04DX003 (ip), vehicle: saline 102 % of control

O=C(O)c1cc([N+](=O)[O-])ccc1P(=O)(O)O
inactive: dose: 75.0 mg/kg/injection, schedule: Q01DX001 (ip), vehicle: saline 93 % of control | dose: 150.0 mg/kg/injection, schedule: Q01DX001 (ip), vehicle: saline 95 % of control

CCCCCNC(C)=O
inactive: dose: 200.0 mg/kg/injection, schedule: Q01DX009 (ip), vehicle: saline 108 % of control

C=CCSc1n[nH]c(=O)[nH]c1=O
inactive: [13] 111 % of control | [14] 92 % of control | [18] 103 % of control

Cc1ccc2nc3c4ccccc4scc-3c2c1
inactive: dose: 100.0 mg/kg/injection, schedule: Q04DX003 (ip), vehicle: acetone 93 % of control

O=C(Nc1ncccn1)Nc1cccc2ccccc12
inactive: dose: 12.5 mg/kg/injection, schedule: Q04DX002 (ip), vehicle: Klucel (hydroxypropylcellulose) (HPC) 102 % of control | dose: 25.0 mg/kg/injection, schedule: Q04DX002 (ip), vehicle: Klucel (hydroxypropylcellulose) (HPC) 97 % of control | dose: 50.0 mg/kg/injection, schedule: Q04DX002 (ip), vehicle: Klucel (hydroxypropylcellulose) (HPC) 97 % of control | dose: 100.0 mg/kg/injection, schedule: Q04DX002 (ip), vehicle: Klucel (hydroxypropylcellulose) (HPC) 92 % of control | dose: 200.0 mg/kg/injection, schedule: Q04DX002 (ip), vehicle: Klucel (hydroxypropylcellulose) (HPC) 92 % of control | dose: 400.0 mg/kg/injection, schedule: Q04DX002 (ip), vehicle: Klucel (hydroxypropylcellulose) (HPC) 95 % of control

COC(=O)C1C(=C(c2ccccc2)c2ccccc2)C1c1ccccc1 (configuration not stated)
inactive: dose: 75.0 mg/kg/injection, schedule: Q04DX003 (ip), vehicle: Klucel (hydroxypropylcellulose) (HPC) 96 % of control | [4] 95 % of control | dose: 100.0 mg/kg/injection, schedule: Q01DX001 (ip), vehicle: steriod suspending solution 93 % of control | dose: 150.0 mg/kg/injection, schedule: Q04DX003 (ip), vehicle: Klucel (hydroxypropylcellulose) (HPC) 94 % of control | [7] 95 % of control | dose: 200.0 mg/kg/injection, schedule: Q01DX001 (ip), vehicle: steriod suspending solution 98 % of control | dose: 300.0 mg/kg/injection, schedule: Q04DX003 (ip), vehicle: Klucel (hydroxypropylcellulose) (HPC) 100 % of control | [10] 103 % of control | dose: 400.0 mg/kg/injection, schedule: Q01DX001 (ip), vehicle: steriod suspending solution 95 % of control
